Data from patent US12479858B2, “Macrocyclic compounds as sting agonists and methods and uses thereof” (Lupin Limited, priority 2019, dated 2025).
Values after ≈ are worked out from the molar mass of the structure shown. Structures can show the parent of a compound that is named as a salt.

Key:
[1] = Apparent solubility/extended kinetic solubility by UHPLC; assay type: physicochemical; conditions: aqueous buffer, thermodynamic from solid, phosphate buffer, 37° C.
Experimental: Biological Assay—Determination of Apparent Solubility/Extended Kinetic Solubility by UHPLC
Test sample preparation: About 0.5 mg of the test sample was weighed and transferred in duplicate in 1 mL glass inserts of 96 well plates. 5 μL of DMSO and 1 ml of phosphate buffer were added. Allowed for equilibrium in an orbital shaker at 37° C. for 24 hrs. Later, allowed it cool to room temperature and centrifuged the 96 well plate (at 240×10 RPM for 20 min) and supernatant material was taken into collection plate, covered it with the heat resistant aluminum sheet or supernatant material was directly taken into HPLC sample vial.
Injected diluent as blank and linearity solutions in duplicate. Recorded the chromatograms and plotted the calibration curve, concentration (X-axis) versus Area (y-axis). The correlation coefficient for calibration curve should be not less than 0.95. If above criteria passes, then injected the test samples and recorded the chromatograms. In case saturated peaks are observed, then diluted the test sample with diluent as appropriate.
Calculated the slope and intercept of the calibration curve. From the standard curve, determined the solubility of the sample in μM (micromolar).

Human STING = biological target: T1, Human STING (Homo sapiens, UniProt Q86WV6, G230A/H232R/R293Q/R71H); test: Stimulation of human STING signaling in THP1 cell line (THP1-Blue ISG SEAP reporter); assay type: cell-based; conditions: THP1-Blue ISG cells, SEAP activity, 18-20 hours
T1 construct: using human THP1-Blue™ ISG SEAP based reporter cell line (Invivogen); host or cells: THP1-Blue ISG cells (human monocytic THP-1 derived SEAP reporter line)
T1 sequence (Q86WV6 whole entry R71H/G230A/H232R/R293Q): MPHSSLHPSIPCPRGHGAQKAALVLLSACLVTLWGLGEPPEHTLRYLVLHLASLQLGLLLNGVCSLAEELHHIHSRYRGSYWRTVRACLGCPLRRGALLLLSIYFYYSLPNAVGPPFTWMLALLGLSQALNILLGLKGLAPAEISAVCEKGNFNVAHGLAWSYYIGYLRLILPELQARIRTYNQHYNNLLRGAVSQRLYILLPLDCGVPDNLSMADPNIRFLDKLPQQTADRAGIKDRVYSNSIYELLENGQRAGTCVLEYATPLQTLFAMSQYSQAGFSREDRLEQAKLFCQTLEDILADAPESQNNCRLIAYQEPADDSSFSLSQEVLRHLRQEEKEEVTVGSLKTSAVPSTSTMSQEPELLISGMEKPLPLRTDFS
Experimental: Biological Assay—Stimulation of Human STING Signaling in THP1 Cell Line
Compounds were tested for their STING activation potential using human THP1-Blue™ ISG SEAP based reporter cell line (Invivogen). Briefly, THP1-Blue ISG cells (100,000 cells/well) in 96 well plate were treated with varying concentrations of test and reference compounds and incubated at 37° C. with 5% CO2 for 18-20 hours. The control untreated cells were also set up. Post incubation, the cell supernatant was tested for SEAP (Secreted Embryonic Alkaline Phosphatase) activity using the QuantiBlue™ substrate reagent (Invivogen). The formation of blue coloured product was quantified by measuring absorbance at wavelength of 620 nm using PheraStar/Tecan reader. The average of duplicate readouts for each data point was plotted in GraphPad prism 6 against the concentration of test or reference compound to calculate EC50 value. The fold of SEAP induction or increase in luminescence at different data points was estimated against the un-stimulated cell control set.

Row | Structure (SMILES) | solubility at 24 h [1] [µM] | EC50 (Human STING) [nM]
1 | CCn1nc(C)cc1C(=O)Nc1nc2cc(C(N)=O)cc3c2n1C/C=C/Cn1c(NC(=O)c2cc(C)nn2CC)nc2cc(C(=O)NCCCc4noc(=O)[nH]4)cc(c21)OCCCO3 [Compound 11, (E)-1,15-bis(1-ethyl-3-methyl-1H-pyrazole-5-carboxamido)-N-(3-(5-oxo-4,5-dihydro-1,2,4-oxadiazol-3-yl)propyl)-8,9,16,19-tetrahydro-7H-6,10-dioxa-2,14,15a,19a-tetraazacyclopentadeca[3,2,1-cd:8,9,10-c′d′]diindene-4,12-dicarboxamide] | 98 (≈ 85.7 µg/mL) | 1 to 10
2 | CCn1nc(C)cc1C(=O)Nc1nc2cc(C(N)=O)cc3c2n1C/C=C/Cn1c(NC(=O)c2cc(C)nn2CC)nc2cc(C(=O)N[C@H]4CC[C@@H](c5nnn[nH]5)CC4)cc(c21)OCCCO3 [Compound 7, (E)-N-((1S,4S)-4-(1H-tetrazol-5-yl)cyclohexyl)-1,15-bis(1-ethyl-3-methyl-1H-pyrazole-5-carboxamido)-8,9,16,19-tetrahydro-7H-6,10-dioxa-2,14,15a,19a-tetraazacyclopentadeca[3,2,1-cd:8,9,10-c′d′]diindene-4,12-dicarboxamide] | – | 11 to 100
3 | CCn1nc(C)cc1C(=O)Nc1nc2cc(C(N)=O)cc3c2n1C/C=C/Cn1c(NC(=O)c2cc(C)nn2CC)nc2cc(C(=O)N[C@H]4CC[C@@H](C(=O)O)CC4)cc(c21)OCCCO3 [Compound 1, (1S,4S)-4-((E)-12-carbamoyl-1,15-bis(1-ethyl-3-methyl-1H-pyrazole-5-carboxamido)-8,9,16,19-tetrahydro-7H-6,10-dioxa-2,14,15a,19a-tetraazacyclopentadeca[3,2,1-cd:8,9,10-c′d′]diindene-4-carboxamido)cyclohexane-1-carboxylic acid] | – | 11 to 100
4 | CCn1nc(C)cc1C(=O)Nc1nc2cc(C(N)=O)cc3c2n1C/C=C/Cn1c(NC(=O)c2cc(C)nn2CC)nc2cc(C(=O)NCCCn4cc(C(=O)O)cn4)cc(c21)OC[C@@H](N1C2CCC1COC2)CO3 [Compound 18, 1-(3-((8S,E)-8-(3-oxa-8-azabicyclo[3.2.1]octan-8-yl)-12-carbamoyl-1,15-bis(1-ethyl-3-methyl-1H-pyrazole-5-carboxamido)-8,9,16,19-tetrahydro-7H-6,10-dioxa-2,14,15a,19a-tetraazacyclopentadeca[3,2,1-cd:8,9,10-c′d′]diindene-4-carboxamido)propyl)-1H-pyrazole-4-carboxylic acid sodium salt] | 250 | 1 to 10
5 | CCn1nc(C)cc1C(=O)Nc1nc2cc(C(N)=O)cc3c2n1C/C=C/Cn1c(NC(=O)c2cc(C)nn2CC)nc2cc(C(=O)NCc4ncccc4C(=O)O)cc(c21)OCCCO3 [Compound 9, (E)-2-((4-carbamoyl-1,15-bis(1-ethyl-3-methyl-1H-pyrazole-5-carboxamido)-8,9,16,19-tetrahydro-7H-6,10-dioxa-2,14,15a,19a-tetraazacyclopentadeca[3,2,1-cd:8,9,10-c′d′]diindene-12-carboxamido)methyl)nicotinic acid] | 100 (≈ 88.4 µg/mL) | 11 to 100
6 | CCn1nc(C)cc1C(=O)Nc1nc2cc(C(N)=O)cc3c2n1C/C=C/Cn1c(NC(=O)c2cc(C)nn2CC)nc2cc(C(=O)NCCCc4nnn[nH]4)cc(c21)OC[C@H](N1C2CCC1COC2)CO3 [Compound 17, (8R,E)-N4-(3-(1H-tetrazol-5-yl)propyl)-8-(3-oxa-8-azabicyclo[3.2.1]octan-8-yl)-1,15-bis(1-ethyl-3-methyl-1H-pyrazole-5-carboxamido)-8,9,16,19-tetrahydro-7H-6,10-dioxa-2,14,15a,19a-tetraazacyclopentadeca[3,2,1-cd:8,9,10-c′d′]diindene-4,12-dicarboxamide sodium salt] | – | 11 to 100
7 | CCn1nc(C)cc1C(=O)Nc1nc2cc(C(N)=O)cc3c2n1C/C=C/Cn1c(NC(=O)c2cc(C)nn2CC)nc2cc(C(=O)NCCc4ccccc4C(=O)O)cc(c21)OCCCO3 [Compound 5, (E)-2-(2-(12-carbamoyl-1,15-bis(1-ethyl-3-methyl-1H-pyrazole-5-carboxamido)-8,9,16,19-tetrahydro-7H-6,10-dioxa-2,14,15a,19a-tetraazacyclopentadeca[3,2,1-cd:8,9,10-c′d′]diindene-4-carboxamido)ethyl)benzoic acid sodium salt] | 1120 | 1 to 10
8 | CCn1nc(C)cc1C(=O)Nc1nc2cc(C(N)=O)cc3c2n1C/C=C/Cn1c(NC(=O)c2cc(C)nn2CC)nc2cc(C(=O)NCCCn4nn[nH]c4=O)cc(c21)OCCCO3 [Compound 10, (E)-1,15-bis(1-ethyl-3-methyl-1H-pyrazole-5-carboxamido)-N-(3-(5-oxo-4,5-dihydro-1H-tetrazol-1-yl)propyl)-8,9,16,19-tetrahydro-7H-6,10-dioxa-2,14,15a,19a-tetraazacyclopentadeca[3,2,1-cd:8,9,10-c′d′]diindene-4,12-dicarboxamide] | 631 (≈ 552 µg/mL) | 11 to 100
9 | CCn1nc(C)cc1C(=O)Nc1nc2cc(C(N)=O)cc3c2n1C/C=C/Cn1c(NC(=O)c2cc(C)nn2CC)nc2cc(C(=O)NCCCc4nnn[nH]4)cc(c21)OC[C@@H](N1C2CCC1COC2)CO3 [Compound 16, (8S,E)-N4-(3-(1H-tetrazol-5-yl)propyl)-8-(3-oxa-8-azabicyclo[3.2.1]octan-8-yl)-1,15-bis(1-ethyl-3-methyl-1H-pyrazole-5-carboxamido)-8,9,16,19-tetrahydro-7H-6,10-dioxa-2,14,15a,19a-tetraazacyclopentadeca[3,2,1-cd:8,9,10-c′d′]diindene-4,12-dicarboxamide sodium salt] | 243 | 1 to 10
10 | CCn1nc(C)cc1C(=O)Nc1nc2cc(C(N)=O)cc3c2n1C/C=C/Cn1c(NC(=O)c2cc(C)nn2CC)nc2cc(C(=O)NCCc4nnn[nH]4)cc(c21)OCCCO3 [Compound 4, (E)-N-(2-(1H-tetrazol-5-yl)ethyl)-1,15-bis(1-ethyl-3-methyl-1H-pyrazole-5-carboxamido)-8,9,16,19-tetrahydro-7H-6,10-dioxa-2,14,15a,19a-tetraazacyclopentadeca[3,2,1-cd:8,9,10-c′d′]diindene-4,12-dicarboxamide] | 149 (≈ 126 µg/mL) | 1 to 10
11 | CCn1nc(C)cc1C(=O)Nc1nc2cc(C(N)=O)cc3c2n1C/C=C/Cn1c(NC(=O)c2cc(C)nn2CC)nc2cc(C(=O)NCCCc4nnn[nH]4)cc(c21)OCCCO3 [Compound 3, (E)-N-(3-(1H-tetrazol-5-yl)propyl)-1,15-bis(1-ethyl-3-methyl-1H-pyrazole-5-carboxamido)-8,9,16,19-tetrahydro-7H-6,10-dioxa-2,14,15a,19a-tetraazacyclopentadeca[3,2,1-cd:8,9,10-c′d′]diindene-4,12-dicarboxamide sodium salt] | 928 | 1 to 10
12 | CCn1nc(C)cc1C(=O)Nc1nc2cc(C(N)=O)cc3c2n1C/C=C/Cn1c(NC(=O)c2cc(C)nn2CC)nc2cc(C(=O)NCCCn4cc(C(=O)O)cn4)cc(c21)OC[C@H](N1C2CCC1COC2)CO3 [Compound 19, 1-(3-((8R,E)-8-(3-oxa-8-azabicyclo[3.2.1]octan-8-yl)-12-carbamoyl-1,15-bis(1-ethyl-3-methyl-1H-pyrazole-5-carboxamido)-8,9,16,19-tetrahydro-7H-6,10-dioxa-2,14,15a,19a-tetraazacyclopentadeca[3,2,1-cd:8,9,10-c′d′]diindene-4-carboxamido)propyl)-1H-pyrazole-4-carboxylic acid sodium salt] | – | 11 to 100
13 | CCn1nc(C)cc1C(=O)Nc1nc2cc(C(N)=O)cc3c2n1C/C=C/Cn1c(NC(=O)c2cc(C)nn2CC)nc2cc(C(=O)N[C@H]4CC[C@H](c5nnn[nH]5)CC4)cc(c21)OCC(N1CC2CCC(C1)O2)CO3 (stereo partly drawn) [Compound 22, (E)-N-((1R,4R)-4-(1H-tetrazol-5-yl)cyclohexyl)-8-(8-oxa-3-azabicyclo[3.2.1]octan-3-yl)-1,15-bis(1-ethyl-3-methyl-1H-pyrazole-5-carboxamido)-8,9,16,19-tetrahydro-7H-6,10-dioxa-2,14,15a,19a-tetraazacyclopentadeca [3,2,1-cd:8,9,10-c′d′]diindene-4,12-dicarboxamide] | – | 11 to 100
14 | CCn1nc(C)cc1C(=O)Nc1nc2cc(C(N)=O)cc3c2n1C/C=C/Cn1c(NC(=O)c2cc(C)nn2CC)nc2cc(C(=O)N[C@H]4CC[C@H](C(=O)O)CC4)cc(c21)OCC(N1CC2CCC(C1)O2)CO3 (stereo partly drawn) [Compound 20, (1R,4R)-4-((E)-8-(8-oxa-3-azabicyclo[3.2.1]octan-3-yl)-12-carbamoyl-1,15-bis(1-ethyl-3-methyl-1H-pyrazole-5-carboxamido)-8,9,16,19-tetrahydro-7H-6,10-dioxa-2,14,15a,19a-tetraazacyclopentadeca[3,2,1-cd:8,9,10-c′d′]diindene-4-carboxamido)cyclohexane-1-carboxylic acid] | – | 11 to 100
